Test results from PMC4128063, “Investigating G protein signalling bias at the glucagon-like peptide-1 receptor in yeast” (British Journal of Pharmacology, 2014).
Read-outs that look alike come from different tables or passages of the source.

How the values were obtained:
Assay type in all cases: cell-based
GLP-1 receptor = GLP-1 receptor (Homo sapiens, UniProt P43220); experiment: G protein signalling bias, GPA1/Gαs versus GPA1/Gαi, yeast assays; conditions: normalized responses at equivalent ligand concentrations
[1] = target: GLP-1 receptor (GPA1/Gαs chimera) (Homo sapiens, UniProt P43220); experiment: Yeast growth assay, GPA1/Gαs chimera strain expressing the GLP-1 receptor
[2] = target: GLP-1 receptor (GPA1/Gαi chimera) (Homo sapiens, UniProt P43220); experiment: Yeast growth assay, GPA1/Gαi chimera strain expressing the GLP-1 receptor
[3] = yeast, 20 h, percentage of the maximum response achieved through activation of GPA1/Gαs, mean ± SEM, n = 5, SEM
[4] = yeast, 20 h, three-parameter logistic fit, mean ± SEM, n = 5, SEM

GLP-1 receptor (GPA1/Gαi chimera), sequence (P43220 24-463, change not shown): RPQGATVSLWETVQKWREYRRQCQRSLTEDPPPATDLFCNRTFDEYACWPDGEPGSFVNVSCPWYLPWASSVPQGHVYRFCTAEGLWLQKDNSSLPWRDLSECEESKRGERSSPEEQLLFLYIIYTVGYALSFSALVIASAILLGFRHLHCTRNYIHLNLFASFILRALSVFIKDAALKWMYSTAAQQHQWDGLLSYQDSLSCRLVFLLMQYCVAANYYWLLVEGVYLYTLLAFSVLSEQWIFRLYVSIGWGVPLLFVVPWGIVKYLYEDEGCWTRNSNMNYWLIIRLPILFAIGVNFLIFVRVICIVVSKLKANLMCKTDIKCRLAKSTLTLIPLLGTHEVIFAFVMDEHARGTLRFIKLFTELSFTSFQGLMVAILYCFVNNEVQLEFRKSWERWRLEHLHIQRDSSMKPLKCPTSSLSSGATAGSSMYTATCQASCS
GLP-1 receptor (GPA1/Gαs chimera), sequence (P43220 24-463, change not shown): as above
GLP-1 receptor, sequence (P43220 24-463): as the sequence (P43220 24-463, change not shown) above

EC50 ([1]; pEC50 (GLP-1 receptor, GPA1/Gαs), non-peptide agonists, yeast, 20 h, three-parameter logistic fit, mean ± SEM, n = 5, SEM)	Emax ([1]; read-out: Emax (GLP-1 receptor, non-peptide agonists), yeast, 20 h, percentage of the maximum response achieved through activation of GPA1/Gαs, mean ± SEM, n = 5, SEM)	EC50 ([1]; value quoted in running text, read-out: EC50 (yeast, GPA1/Gαs))	EC50 ([2]; pEC50 (GLP-1 receptor, GPA1/Gαi), non-peptide agonists, yeast, 20 h, three-parameter logistic fit, mean ± SEM, n = 5, SEM)	Emax ([2]; read-out: Emax (GLP-1 receptor, GPA1/Gαi), non-peptide agonists, yeast, 20 h, percentage of the maximum response achieved through activation of GPA1/Gαs, mean ± SEM, n = 5, SEM)	EC50 ([2]; value quoted in running text, read-out: EC50 (yeast, GPA1/Gαi))	Emax (GLP-1 receptor, GPA1/Gαs), non-peptide agonists [1, 3]	pEC50 (GLP-1 receptor, GPA1/Gαs), non-peptide agonists [1, 4]	Emax (GLP-1 receptor, GPA1/Gαi), non-peptide agonists [2, 3]	pEC50 (GLP-1 receptor, GPA1/Gαi), non-peptide agonists [2, 4]	SMILES	Equimolar bias plot, GPA1/Gαs versus GPA1/Gαi (GLP-1 receptor)
7.94 nM	100 ± 5.1%	10 nM	15.8 nM	96.5 ± 4.3%	15 nM					CC[S+]([O-])c1nc(-c2cccc(OCc3ccccc3)c2)cc(C(F)(F)F)n1 (centres unmarked) [BETP, 4-(3-benzyloxyphenyl)-2-ethylsulfinyl-6-(trifluoromethyl) pyrimidine]	did not deviate from the no-bias line of unity
						100 ± 7.3%	8.6 ± 0.2	67.5 ± 7.3 %	8.5 ± 0.3	CC(C)(C)Nc1nc2cc(Cl)c(Cl)cc2nc1S(C)(=O)=O [Compound 2, 6,7-dichloro-2-methylsulfonyl-3-N-tert-butylaminoquinoxaline]	
